Patent US20200085789A1, “USE OF A PROTEASOME INHIBITOR FOR THE TREATMENT OF CENTRAL NERVOUS SYSTEM (CNS) CANCERS” (Celgene International II Sàrl, priority 2017, published 2020)

Experiment: Adverse events and dose-limiting toxicity (NCI-CTCAE v 4.03), MRZ ± BEV in recurrent grade IV malignant glioma patients
Assay type: in vivo, human
Source text: An adverse event (AE) is any noxious, unintended, or untoward medical occurrence that may appear or worsen in a subject during the course of a study. […] Any worsening (i.e., any clinically significant adverse change in the frequency or intensity of a pre-existing condition) should be considered an AE.
The severity/intensity of AEs will be graded based upon the subject's symptoms according to the current active minor version of the Common Terminology Criteria for Adverse Events ( ).

[1] = treated with MRZ 0.8 mg/m^2 + BEV (N = 27)

SMILES: C[C@@]12OC(=O)[C@]1([C@@H](O)[C@@H]1C=CCCC1)NC(=O)[C@@H]2CCCl [MRZ, marizomib]
- Fall: patients, worst Grade 2 (Part 1 N = 36, Part 2 N = 30): 1
- Fatigue: patients, Total (Part 1 N = 36, Part 2 N = 30): 20
- Fatigue: patients, worst Grade 1 (Part 1 N = 36, Part 2 N = 30): 8
- Fatigue: patients, worst Grade 2 (Part 1 N = 36, Part 2 N = 30): 11
- Fatigue: patients, worst Grade 3 (Part 1 N = 36, Part 2 N = 30): 2
- Hallucination: patients, Total (Part 1 N = 36, Part 2 N = 30): 12
- Hallucination: patients, worst Grade 1 (Part 1 N = 36, Part 2 N = 30): 6
- Hallucination: patients, worst Grade 2 (Part 1 N = 36, Part 2 N = 30): 4
- Hallucination: patients, worst Grade 3 (Part 1 N = 36, Part 2 N = 30): 1
- Hallucination: patients, worst Grade 4 (Part 1 N = 36, Part 2 N = 30): 1
- Headache: patients, Total (Part 1 N = 36, Part 2 N = 30): 14
- Headache: patients, worst Grade 1 (Part 1 N = 36, Part 2 N = 30): 10
- Headache: patients, worst Grade 2 (Part 1 N = 36, Part 2 N = 30): 3
- Headache: patients, worst Grade 3 (Part 1 N = 36, Part 2 N = 30): 1
- Hyperglycemia: patients, Total (Part 1 N = 36, Part 2 N = 30): 7
- Hyperglycemia: patients, worst Grade 1 (Part 1 N = 36, Part 2 N = 30): 2
- Hyperglycemia: patients, worst Grade 2 (Part 1 N = 36, Part 2 N = 30): 4
- Hyperglycemia: patients, worst Grade 3 (Part 1 N = 36, Part 2 N = 30): 1−
- Hypertension: patients, Total (Part 1 N = 36, Part 2 N = 30): 4
- Hypertension: patients, worst Grade 1 (Part 1 N = 36, Part 2 N = 30): 1
- Hypertension: patients, worst Grade 2 (Part 1 N = 36, Part 2 N = 30): 1
- Hypertension: patients, worst Grade 3 (Part 1 N = 36, Part 2 N = 30): 2
- Hypokalemia: patients, Total (Part 1 N = 36, Part 2 N = 30): 9
- Hypokalemia: patients, worst Grade 1 (Part 1 N = 36, Part 2 N = 30): 7
- Hypokalemia: patients, worst Grade 2 (Part 1 N = 36, Part 2 N = 30): 2
- Infusion Site Reaction (includes edema, pain, phlebitis, redness): patients, Total (Part 1 N = 36, Part 2 N = 30): 5
- Infusion Site Reaction: patients, worst Grade 1 (Part 1 N = 36, Part 2 N = 30): 3
- Infusion Site Reaction: patients, worst Grade 2 (Part 1 N = 36, Part 2 N = 30): 2
- Insomnia: patients, Total (Part 1 N = 36, Part 2 N = 30): 1.
- Insomnia: patients, worst Grade 1 (Part 1 N = 36, Part 2 N = 30): 7
- Insomnia: patients, worst Grade 2 (Part 1 N = 36, Part 2 N = 30): 5
- Insomnia: patients, worst Grade 3 (Part 1 N = 36, Part 2 N = 30): 1
- Nausea: patients, Total (Part 1 N = 36, Part 2 N = 30): 11
- Nausea: patients, worst Grade 1 (Part 1 N = 36, Part 2 N = 30): 7
- Nausea: patients, worst Grade 2 (Part 1 N = 36, Part 2 N = 30): 2
- Nausea: patients, worst Grade 3 (Part 1 N = 36, Part 2 N = 30): 2
- Platelet Count Decreased: patients, Total (Part 1 N = 36, Part 2 N = 30): 7
- Platelet Count Decreased: patients, worst Grade 1 (Part 1 N = 36, Part 2 N = 30): 7
- Vomiting: patients, Total (Part 1 N = 36, Part 2 N = 30): 10
- Vomiting: patients, worst Grade 1 (Part 1 N = 36, Part 2 N = 30): 8
- Vomiting: patients, worst Grade 3 (Part 1 N = 36, Part 2 N = 30): 2
- marizomib-related adverse events ≥3: confusional state (Phase 1): 3
- marizomib-related adverse events ≥3: headache (Phase 1): 3
- patients with marizomib-related serious adverse events (Phase 1): Four
- Grade 4 serious adverse event (hallucination, MRZ-related) (Phase 2 monotherapy): one
- treatment-related Grade ≥3 AEs in two or more patients (Phase 2 monotherapy): fatigue, hallucination, lethargy
- Grade 4 serious adverse event (hallucination, MRZ-related) (Phase 2 monotherapy, listed as marizomib): One
- Anaemia: # Patients, AE related to the labelled drug(s) (pts on MRZ+BEV): 6
- Anxiety: # Patients, AE related to the labelled drug(s) (pts on MRZ+BEV): 0
- Aphasia: # Patients, AE related to the labelled drug(s) (pts on MRZ+BEV): 0
- Appendicitis Perforated: # Patients, AE related to the labelled drug(s) (pts on MRZ+BEV): 0
- Asthenia: # Patients, AE related to the labelled drug(s) (pts on MRZ+BEV): 0
- Ataxia: # Patients, AE related to the labelled drug(s) (pts on MRZ+BEV): 6
- Confusional State: # Patients, AE related to the labelled drug(s) (pts on MRZ+BEV): 6
- Constipation: # Patients, AE related to the labelled drug(s) (pts on MRZ+BEV): 4
- Convulsion: # Patients, AE related to the labelled drug(s) (pts on MRZ+BEV): 0
- Delusion: # Patients, AE related to the labelled drug(s) (pts on MRZ+BEV): 1
- Depressed Level of Consciousness: # Patients, AE related to the labelled drug(s) (pts on MRZ+BEV): 0
- Diarrhoea: # Patients, AE related to the labelled drug(s) (pts on MRZ+BEV): 9
- Dizziness: # Patients, AE related to the labelled drug(s) (pts on MRZ+BEV): 8
- Dysarthria: # Patients, AE related to the labelled drug(s) (pts on MRZ+BEV): 1
- Dysphagia: # Patients, AE related to the labelled drug(s) (pts on MRZ+BEV): 0
- Dysphonia: # Patients, AE related to the labelled drug(s) (pts on MRZ+BEV): 0
- Dyspnoea: # Patients, AE related to the labelled drug(s) (pts on MRZ+BEV): 0
- Ear Infection: # Patients, AE related to the labelled drug(s) (pts on MRZ+BEV): 0
- Embolism: # Patients, AE related to the labelled drug(s) (pts on MRZ+BEV): 0
- Epistaxis: # Patients, AE related to the labelled drug(s) (pts on MRZ+BEV): 0
- Falls: # Patients, AE related to the labelled drug(s) (pts on MRZ+BEV): 3
- Fatigue: # Patients, AE related to the labelled drug(s) (pts on MRZ+BEV): 1
- Fracture of Femur: # Patients, AE related to the labelled drug(s) (pts on MRZ+BEV): 0
- Haemorrhage Intracranial: # Patients, AE related to the labelled drug(s) (pts on MRZ+BEV): 0
- Hallucination: # Patients, AE related to the labelled drug(s) (pts on MRZ+BEV): 11
- Headache: # Patients, AE related to the labelled drug(s) (pts on MRZ+BEV): 5
- Hemiparesis: # Patients, AE related to the labelled drug(s) (pts on MRZ+BEV): 0
- Hyperglycemia: # Patients, AE related to the labelled drug(s) (pts on MRZ+BEV): 0
- Hypertension: # Patients, AE related to the labelled drug(s) (pts on MRZ+BEV): 0
- Hypokalemia: # Patients, AE related to the labelled drug(s) (pts on MRZ+BEV): 0
- Hyponatremia: # Patients, AE related to the labelled drug(s) (pts on MRZ+BEV): 1
- Hypotension: # Patients, AE related to the labelled drug(s) (pts on MRZ+BEV): 0
- Infusion Site Pain: # Patients, AE related to the labelled drug(s) (pts on MRZ+BEV): 6
- Insomnia: # Patients, AE related to the labelled drug(s) (pts on MRZ+BEV): 1
- Lymphocyte Count Decreased: # Patients, AE related to the labelled drug(s) (pts on MRZ+BEV): 0
- Muscular Weakness: # Patients, AE related to the labelled drug(s) (pts on MRZ+BEV): 2
- Nausea: # Patients, AE related to the labelled drug(s) (pts on MRZ+BEV): 19
- Optic Nerve Disorder: # Patients, AE related to the labelled drug(s) (pts on MRZ+BEV): 0
- Pyramidal Tract Syndrome: # Patients, AE related to the labelled drug(s) (pts on MRZ+BEV): 0
- Tumor Metastasis: # Patients, AE related to the labelled drug(s) (pts on MRZ+BEV): 0
- Vision Blurred: # Patients, AE related to the labelled drug(s) (pts on MRZ+BEV): 3
- Vomiting: # Patients, AE related to the labelled drug(s) (pts on MRZ+BEV): 12
- time of onset of CNS adverse events (range): from the day of treatment to six days post-marizomib infusion
- Anaemia related to the labelled drug(s) [1]: (18.5%)
- Anaemia related to the labelled drug(s), patients [1]: 5
- Ataxia related to the labelled drug(s) [1]: (25.9%)
- Ataxia related to the labelled drug(s), patients [1]: 7
- Confusional state related to the labelled drug(s) [1]: (25.9%)
- Confusional state related to the labelled drug(s), patients [1]: 7
- Constipation related to the labelled drug(s) [1]: (18.5%)
- Constipation related to the labelled drug(s), patients [1]: 5
- Diarrhoea related to the labelled drug(s) [1]: (29.6%)
- Diarrhoea related to the labelled drug(s), patients [1]: 8
- Dizziness related to the labelled drug(s) [1]: (29.6%)
- Dizziness related to the labelled drug(s), patients [1]: 8
- Dysphonia related to the labelled drug(s) [1]: (3.7%)
- Dysphonia related to the labelled drug(s), patients [1]: 1
- Epistaxis related to the labelled drug(s) [1]: (0.0%)
- Epistaxis related to the labelled drug(s), patients [1]: 0
- Fall related to the labelled drug(s) [1]: (11.1%)
- Fall related to the labelled drug(s), patients [1]: 3
- Fatigue related to the labelled drug(s) [1]: (70.4%)
- Fatigue related to the labelled drug(s), patients [1]: 19
- Hallucination related to the labelled drug(s) [1]: (44.4%)
- Hallucination related to the labelled drug(s), patients [1]: 12
- Headache related to the labelled drug(s) [1]: (44.4%)
- Headache related to the labelled drug(s), patients [1]: 12
- Hypertension related to the labelled drug(s) [1]: (3.7%)
- Hypertension related to the labelled drug(s), patients [1]: 1
- Infusion site pain related to the labelled drug(s) [1]: (14.8%)
- Infusion site pain related to the labelled drug(s), patients [1]: 4
- Muscular weakness related to the labelled drug(s) [1]: (11.1%)
- Muscular weakness related to the labelled drug(s), patients [1]: 3
- Nausea related to the labelled drug(s) [1]: (63.0%)
- Nausea related to the labelled drug(s), patients [1]: 17
- Platelet count decreased related to the labelled drug(s) [1]: (7.4%)
- Platelet count decreased related to the labelled drug(s), patients [1]: 2
- Stomatitis related to the labelled drug(s) [1]: (11.1%)
- Stomatitis related to the labelled drug(s), patients [1]: 3
- Upper-airway cough syndrome related to the labelled drug(s) [1]: (0.0%)
- Upper-airway cough syndrome related to the labelled drug(s), patients [1]: 0
- Vomiting related to the labelled drug(s) [1]: (55.6%)
- Vomiting related to the labelled drug(s), patients [1]: 15
